Measured values from US20260297095A1, “NOVEL PYRROLOTRIAZINE DERIVATIVE AND USE THEREOF” (Pelemed Co., Ltd., priority 2024, published 2026).

Key:
[1] = system: KYSE-70 esophageal cancer cell line; assay: Cell growth inhibition of KYSE-70 (Sulforhodamine B); type: cell-based; conditions: Homo sapiens; KYSE-70, 72 hours; read-out: KYSE70 GI50
Summary of the method: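 KYSE-70 cells (YES1-amplified) in RPMI-1640 with 10% FBS were seeded 24 h before treatment with compound at 0.0046–10 µM final. After 72 h, cells were TCA-fixed and stained with sulforhodamine B, with absorbance read at 510 nm. GI50 was derived with a time-zero plate set to 0% and the vehicle control to 100%, in duplicate tests.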

[2] = target: YES1 kinase (Homo sapiens, UniProt P07947); assay: YES1 kinase inhibition, ADP Glo assay (Promega); type: biochemical; conditions: for inhibition at 0.01 µM: compound 10 nM, read-out: YES1 enzyme, % inhibition, 10 nM; for inhibition at 0.1 µM: compound 100 nM, read-out: YES1 enzyme, % inhibition, 100 nM; for YES1 kinase inhibition at 1 nM (in words) / inhibition at 0.001 µM: compound 1 nM; for inhibition at 0.001 µM: read-out: YES1 enzyme, % inhibition, 1 nM; for IC50: class symbols, read-out: YES1 enzyme, IC50
YES1 kinase, sequence (P07947 whole entry): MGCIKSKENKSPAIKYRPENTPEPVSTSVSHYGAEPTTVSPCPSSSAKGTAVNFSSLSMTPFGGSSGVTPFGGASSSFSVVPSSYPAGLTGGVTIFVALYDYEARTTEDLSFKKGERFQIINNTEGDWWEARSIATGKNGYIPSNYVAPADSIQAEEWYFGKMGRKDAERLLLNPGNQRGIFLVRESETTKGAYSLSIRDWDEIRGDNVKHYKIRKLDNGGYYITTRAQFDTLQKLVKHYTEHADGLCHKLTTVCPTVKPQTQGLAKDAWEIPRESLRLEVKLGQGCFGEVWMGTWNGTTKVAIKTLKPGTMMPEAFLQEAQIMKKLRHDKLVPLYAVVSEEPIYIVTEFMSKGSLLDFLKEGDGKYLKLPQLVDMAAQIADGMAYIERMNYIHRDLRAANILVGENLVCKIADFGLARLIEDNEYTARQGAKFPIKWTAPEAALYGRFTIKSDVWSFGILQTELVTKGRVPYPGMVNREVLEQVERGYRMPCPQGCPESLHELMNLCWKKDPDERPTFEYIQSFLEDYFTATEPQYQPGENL
Summary of the method: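 ADP-Glo luminescence after a 40 min room-temperature reaction of YES1 with ATP and substrate (buffer with MnCl2 and DTT; 10 min compound preincubation) was used as readout. Percent inhibition at 1, 10 and 100 nM compound was calculated relative to negative control after background subtraction, and IC50 values derived.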

Row | SMILES | GI50 [1] [nM] | inhibition at 0.01 µM [2] [%] | inhibition at 0.1 µM [2] [%] | inhibition at 0.001 µM [2] [%] | IC50 [2] [nM] | YES1 kinase inhibition at 1 nM (in words) [2]
1 | COc1cc(-c2cc(N3CC4CC(C3)C4N)n3ncnc(N)c23)ccc1NC(=O)OC(C)(C)C (centres unmarked) [Example 93, tert-butyl (4-(4-amino-7-(6-amino-3-azabicyclo[3.1.1]heptan-3-yl)pyrrolo[2,1-f][1,2,4]triazin-5-yl)-2-methoxyphenyl)carbamate] | 100 to 1000 | 14 | 48 |  |  | 
2 | COc1cc(-c2cc(N3CCC(N)(C(F)(F)F)CC3)n3ncnc(N)c23)ccc1NC(=O)OC(C)(C)C [Example 83, tert-butyl (4-(4-amino-7-(4-amino-4-(trifluoromethyl)piperidin-1-yl)pyrrolo[2,1-f][1,2,4]triazin-5-yl)-2-methoxyphenyl)carbamate] | 100 to 1000 | 24 |  | 14 |  | could be inhibited even at a low concentration of 1 nM
3 | COc1cc(-c2cc(N3CCC4C(CCN4C)C3)n3ncnc(N)c23)ccc1NC(=O)OC(C)(C)C (centres unmarked) [Example 26, tert-butyl (4-(4-amino-7-(1-methyloctahydro-5H-pyrrolo[3,2-c]pyridin-5-yl)pyrrolo[2,1-f][1,2,4]triazin-5-yl)-2-methoxyphenyl)carbamate] | 1000 to 10000 | 30 | 69 |  |  | 
4 | CNC1CCN(c2cc(-c3ccc(NC(=O)OC(C)(C)C)c(OC)c3)c3c(N)ncnn23)CC1 [Example 44, tert-butyl (4-(4-amino-7-(4-(methylamino)piperidin-1-yl)pyrrolo[2,1-f][1,2,4]triazin-5-yl)-2-methoxyphenyl)carbamate] | ≤ 100 | 80 | 96 |  | ≤ 100 | 
5 | COc1cc(-c2cc(N[C@H]3C[C@H](N)C3)n3ncnc(N)c23)ccc1NC(=O)OC(C)(C)C [Example 119, tert-butyl (4-(4-amino-7-(((1r,3r)-3-aminocyclobutyl)amino)pyrrolo[2,1-f][1,2,4]triazin-5-yl)-2-methoxyphenyl)carbamate] | 100 to 1000 | 55 |  | 24 |  | could be inhibited even at a low concentration of 1 nM
6 | COc1cc(-c2cc(N3CCC(C)(CN)CC3)n3ncnc(N)c23)ccc1NC(=O)OC(C)(C)C [Example 123, tert-butyl (4-(4-amino-7-(4-(aminomethyl)-4-methylpiperidin-1-yl)pyrrolo[2,1-f][1,2,4]triazin-5-yl)-2-methoxyphenyl)carbamate] | ≤ 100 |  |  |  | ≤ 100 | 
7 | COc1cc(-c2cc(N3CCC4(CC3)CNC(=O)C4)n3ncnc(N)c23)ccc1NC(=O)OC(C)(C)C [Example 52, tert-butyl (4-(4-amino-7-(3-oxo-2,8-diazaspiro[4.5]decan-8-yl)pyrrolo[2,1-f][1,2,4]triazin-5-yl)-2-methoxyphenyl)carbamate] | 100 to 1000 | 60 | 90 |  | ≤ 100 | 
8 | COc1cc(-c2cc(N3CCC(N)CC3)n3ncnc(N)c23)ccc1NC(=O)OC(C)(C)CF [Example 65, 1-fluoro-2-methylpropan-2-yl (4-(4-amino-7-(4-aminopiperidin-1-yl)pyrrolo[2,1-f][1,2,4]triazin-5-yl)-2-methoxyphenyl)carbamate] | 100 to 1000 |  |  |  | ≤ 100 | 
9 | COc1cc(-c2cc(N3CCC(N)CC3)n3ncnc(N)c23)ccc1NC(=O)c1ccoc1 [Example 138, N-(4-(4-amino-7-(4-aminopiperidin-1-yl)pyrrolo[2,1-f][1,2,4]triazin-5-yl)-2-methoxyphenyl)furan-3-carboxamide] | > 10000 |  |  |  | ≤ 100 | 
10 | COc1cc(-c2cc(-c3ccc(N(C)C)c(C)c3)n3ncnc(N)c23)ccc1NC(=O)OC(C)(C)C [Example 3, tert-butyl (4-(4-amino-7-(4-(dimethylamino)-3-methylphenyl)pyrrolo[2,1-f][1,2,4]triazin-5-yl)-2-methoxyphenyl)carbamate] | > 10000 | 44 | 49 |  |  | 
11 | CNC1(C)CCN(c2cc(-c3ccc(NC(=O)OC(C)(C)C)c(OC)c3)c3c(N)ncnn23)CC1 [Example 105, tert-butyl (4-(4-amino-7-(4-methyl-4-(methylamino)piperidin-1-yl)pyrrolo[2,1-f][1,2,4]triazin-5-yl)-2-methoxyphenyl)carbamate] | ≤ 100 |  |  |  | ≤ 100 | 
12 | COc1cc(-c2cc(N3CCC(N)CC3)n3ncnc(N)c23)ccc1NC(=O)OC(C)(C)C [Example 12, tert-butyl (4-(4-amino-7-(4-aminopiperidin-1-yl)pyrrolo[2,1-f][1,2,4]triazin-5-yl)-2-methoxyphenyl)carbamate] | 100 to 1000 | 65 | 86 |  |  | 
13 | COc1cc(-c2cc(N3CCC4(CC3)CN(C)C4)n3ncnc(N)c23)ccc1NC(=O)OC(C)(C)C [Example 21, tert-butyl (4-(4-amino-7-(2-methyl-2,7-diazaspiro[3.5]nonan-7-yl)pyrrolo[2,1-f][1,2,4]triazin-5-yl)-2-methoxyphenyl)carbamate] | 100 to 1000 | 67 | 92 |  |  | 
14 | COc1cc(-c2cc(N3CCC(CN(C)C)CC3)n3ncnc(N)c23)ccc1NC(=O)OC(C)(C)C [Example 19, tert-butyl (4-(4-amino-7-(4-((dimethylamino)methyl)piperidin-1-yl)pyrrolo[2,1-f][1,2,4]triazin-5-yl)-2-methoxyphenyl)carbamate] | ≤ 100 | 69 | 86 |  |  | 

Continued, in another order:

Row | GI50 [1] [nM] | inhibition at 0.01 µM [2] [%] | inhibition at 0.1 µM [2] [%] | inhibition at 0.001 µM [2] [%] | IC50 [2] [nM] | SMILES | YES1 kinase inhibition at 1 nM (in words) [2]
15 | 1000 to 10000 | 5 | 43 |  |  | COc1cc(-c2cc(N3CCC[C@@H](CN(C)C)C3)n3ncnc(N)c23)ccc1NC(=O)OC(C)(C)C [Example 40, tert-butyl (S)-(4-(4-amino-7-(3-((dimethylamino)methyl)piperidin-1-yl)pyrrolo[2,1-f][1,2,4]triazin-5-yl)-2-methoxyphenyl)carbamate] | 
16 | 1000 to 10000 | 53 | 59 |  |  | COc1cc(-c2cc(N3CCN(C4CC4)CC3)n3ncnc(N)c23)ccc1NC(=O)OC(C)(C)C [Example 17, tert-butyl (4-(4-amino-7-(4-cyclopropylpiperazin-1-yl)pyrrolo[2,1-f][1,2,4]triazin-5-yl)-2-methoxyphenyl)carbamate] | 
17 | 1000 to 10000 | 41 | 85 |  |  | COc1cc(-c2cc(N3CCN(CCN(C)C)CC3)n3ncnc(N)c23)ccc1NC(=O)OC(C)(C)C [Example 28, tert-butyl (4-(4-amino-7-(4-(2-(dimethylamino)ethyl)piperazin-1-yl)pyrrolo[2,1-f][1,2,4]triazin-5-yl)-2-methoxyphenyl)carbamate] | 
18 | 100 to 1000 | 39 | 81 |  |  | COc1cc(-c2cc(N3CC4(CC(N(C)C)C4)C3)n3ncnc(N)c23)ccc1NC(=O)OC(C)(C)C [Example 18, tert-butyl (4-(4-amino-7-(6-(dimethylamino)-2-azaspiro[3.3]heptan-2-yl)pyrrolo[2,1-f][1,2,4]triazin-5-yl)-2-methoxyphenyl)carbamate] | 
19 | ≤ 100 | 59 | 78 |  | ≤ 100 | COc1cc(-c2cc(N3CC[C@H](N)[C@@H](C(F)(F)F)C3)n3ncnc(N)c23)ccc1NC(=O)OC(C)(C)C [Example 85, tert-butyl (4-(4-amino-7-((3S,4S)-4-amino-3-(trifluoromethyl)piperidin-1-yl)pyrrolo[2,1-f][1,2,4]triazin-5-yl)-2-methoxyphenyl)carbamate] | 
20 | 100 to 1000 | 50 | 82 |  |  | COc1cc(-c2cc(N3CCC4(CCCN4C)CC3)n3ncnc(N)c23)ccc1NC(=O)OC(C)(C)C [Example 24, tert-butyl (4-(4-amino-7-(1-methyl-1,8-diazaspiro[4.5]decan-8-yl)pyrrolo[2,1-f][1,2,4]triazin-5-yl)-2-methoxyphenyl)carbamate] | 
21 | ≤ 100 | 20 | 60 |  | ≤ 100 | COc1cc(-c2cc(N3CCC4(CCC(=O)N4)CC3)n3ncnc(N)c23)ccc1NC(=O)OC(C)(C)C [Example 54, tert-butyl (4-(4-amino-7-(2-oxo-1,8-diazaspiro[4.5]decan-8-yl)pyrrolo[2,1-f][1,2,4]triazin-5-yl)-2-methoxyphenyl)carbamate] | 
22 | 100 to 1000 | 28 | 76 |  |  | COc1cc(-c2cc(N3CCC4NCCC4C3)n3ncnc(N)c23)ccc1NC(=O)OC(C)(C)C (centres unmarked) [Example 25, tert-butyl (4-(4-amino-7-(octahydro-5H-pyrrolo[3,2-c]pyridin-5-yl)pyrrolo[2,1-f][1,2,4]triazin-5-yl)-2-methoxyphenyl)carbamate] | 
